Test results as given in patent US8003372B2, “Device for performing cell assays” (The University Court of the University of Glasgow, priority 2002, dated 2011).

System: adult ventricular myocytes
Experimental: Single cardiac myocytes were isolated from rabbit ventricles by collagenase digestion (D. A. Eisner, C. G. Nichols, S. C. O'Neill, G. L. Smith and M. Valdeomillos, The effects of metabolic inhibition on intracellular calcium an pH in isolated rat ventricular cells, Journal of Physiology, 411, (1989), 393-418) and kept in Base Krebs Solution, containing 120 mM NaCl, 20 mM sodium N-hydroxyethylpiperazine-N′-2-ethane sulphonic acid, 5.4 mM KCl, 0.52 mM NaH2PO4, 3.5 mM MgCl2.6H2O, 20 mM Taurine, 10 mM Creatine, 100 mM Glucose, 0.1% BSA, 0.1 mM CaCl2. The pH was adjusted to 7.4 with 100 mM NaOH.
Sarcomere length and intracellular Ca^2+ concentration ([Ca^2+]i) were monitored simultaneous using the fluorescence-contractility System of Ionoptix (Milton, Mass., USA). Ventricular myocytes were loaded with Fluo-3 by incubation for 30 min in 20 μM Fluo-3 AM solution (Molecular Probes). […] To measure the possible change in extracellular pH during field stimulation, 10 μM BCECF (Molecular Probes) was added to the bath and the emission was recorded using the same filter set as for Fluo-3. […]
Symmetric biphasic rectangular pulses were generated across the electrodes. […] A voltage-current converter was used to read the current response of one electrode together with the corresponding voltage into a 20 MHz 4 channel acquisition card (PCI-9812, Adlink, Taiwan). A TTL signal synchronous to the biphasic pulses was fed into the reader of the PMT-current to mark each pulse arrival on the fluorescence trace for off-line event averaging. After filling the microchambers with electrolyte (buffer), the current evoked on the individual stimulation electrodes was monitored to assure the ionic connection between the microelectrodes in each chamber, prior to the addition of cardiac muscle cells. The measured current was integrated to give a measure of the total amount of net-charge added to the microchamber, and the polarization of the electrode surface. […]

Structure (SMILES): N#CC(C#N)=NNc1ccc(OC(F)(F)F)cc1 [FCCP]
- Ca2+ transients evoked at 0.5 Hz (1 μM FCCP, 10 minutes after the 50 min time point of continual stimulation, 100 pL chamber): ceased almost completely
- response of the cell to electrical stimuli (Ca2+ transient) (1 μM FCCP, after 50 min continual stimulation at alternating frequencies of 0.5 and 1.0 Hz, 100 pL chamber): no longer responded to every single stimulus with a Ca^2+ transient of normal amplitude
- excitability of the cell after washing out (after washing out FCCP, changing the buffer and a 5 min rest interval): regained its excitability
